Experimental data reported in paper PMC9021288 (Nature Communications, 2022).
≈ marks a conversion by molar mass, not a printed value. Where “and” joins values, the source holds several entries; their conditions need not be identical. Identical values can stand only once. Entries after “also recorded” stand apart in the source; their conditions may differ. Like-named read-outs stand apart in the source and are kept apart here.

Experiments:
[1] = system: artemisinin-resistant P. falciparum Cambodian field isolates; assay: Drug susceptibility of culture-adapted Cambodian isolates; assay type: cell-based, Plasmodium falciparum
Procedure: Endpoint readout to determine parasites density was performed with a High-Content Confocal Imaging microscope (Lionheart™ FX Automated Microscope, Biotek), IC50 values were obtained using ICestimator software (http://www.antimalarial-icestimator.net/runregression1.2.htm).

[2] = system: P. falciparum Pf3D7^0087/N9 and Pf3D7^20161128TAD17N214; assay: PKPD efficacy studies in humanized NSG mice and PD model; assay type: in vivo, Plasmodium falciparum
Procedure: The experimental designs are summarized in Supplementary Table 30. […] Samples were processed under liquid-liquid extraction methods and analyzed by LC-MS/MS for quantitation in a Waters UPLC-TQD (Micromass, Manchester, UK).
Data preparation, exploration and model pre- and postprocessing were performed using R (version 3.6.3) and R package IQRtools (version 1.2.1 IntiQuan GmbH). Non-linear mixed-effects (NLME) modeling was used to estimate the PK and PD parameters using Monolix (Lixoft version MLX2018R2). The population PKPD model was developed with a two-stage approach: first, a population PK model was determined; then, the individual PK parameters were used as regression parameters and the PD parameters were estimated. The PD model consists of the balance between a parasite net growth rate and a drug killing rate. […] The growth rate of log-transformed parasite concentration was fixed at 0.03 /h based on prior experiments but estimating growth rate interindividual variability. Different Hill coefficients were tested.

[3] = UV scan for phototoxicity; assay type: physicochemical
Pharmacokinetics in mice = assay type: in vivo, male CD1 mice
Procedure: Subsequently, samples were spun down at 1640 g for 5-10 min at 4 °C within 30 min after collection and plasma was collected. […] Urine was collected following an intravenous dose in both rat and dog, allowing renal clearance to be estimated. Human renal clearance was estimated from dog renal clearance as previously described[40] and other human PK parameters were predicted using allometric scaling and/or in vitro clearance data. PK parameters were calculated by naïve pooled approach using WinNonLin software (Phoenix, version 6.3).

Caco-2 = Caco-2 permeability assay; details: pH 7.4/7.4
[4] = Plasma protein binding, human

## C[C@@H](CNC(=O)[C@H](O)C(C)(C)CO)NC(=O)c1cc(F)c(F)cc1F [MMV693183]
[1]
  sensitivity of isolates: sensitive to MMV693183
[1]; ART isolates, read-out: IC50s
  IC50: 1.36 nM and 1.4 nM and 1.6 nM and 1.2 nM and 1.3 nM
[1]; ART-PPQ-AQ isolates, read-out: IC50s
  IC50: 0.84 nM and 1.26 nM and 1.36 nM and 1.54 nM and 1.3 nM and 1.03 nM and 1.1 nM and 1.39 nM
[1]; Cambodian ACT-resistant isolates, read-out: IC50
  IC50: 0.21 to 1.84 nM
[1]; MQ-ART isolates, read-out: IC50s
  IC50: 1.48 nM
[1]; WT isolates, read-out: IC50s
  IC50: 1.57 nM and 1.28 nM and 1.01 nM and 1.31 nM and 1.26 nM and 1.38 nM and 1.32 nM and 1.61 nM
[2]; PD model estimate
  EC50, concentration achieving 50percent of maximum effect: 11.5 ng/mL
[2]; PKPD model
  MIC: 3.2 ng/mL (≈ 8.83 nM)
  MPC90: 38.4 ng/mL
[2]; in vivo
  ED90: 4.4 mg/kg
[2]; single-dose groups
  time at which 3D7 parasites were cleared: 4 to 6 days
[3]
  UV absorbance: No absorbance >290 nm; also recorded: no detectable absorption above 290 nm
Pharmacokinetics in mice; Mouse
  Observed hepatic/ predicted hepatic: < 1.9
  Observed total-renal = observed hepatic: < 13.4 mL/min/kg
Pharmacokinetics in mice; Mouse, from in vitro hepatic clearance, Fu,p and B:P
  Predicted hepatic plasma clearance: 7 mL/min/kg and 7.0 mL/min/kg
Pharmacokinetics in mice; Mouse, Time (hrs) 0
  Norm. conc i.v.: 0 ng/mL
  Norm. conc p.o.: 0 ng/mL
Pharmacokinetics in mice; Mouse, Time (hrs) 0.083333
  Norm. conc i.v.: 1320 ng/mL and 1393.33 ng/mL and 1330 ng/mL
Pharmacokinetics in mice; Mouse, Time (hrs) 0.25
  Norm. conc i.v.: 846.667 ng/mL and 920 ng/mL and 863.333 ng/mL
  Norm. conc p.o.: 870 ng/mL and 850 ng/mL and 790 ng/mL
Pharmacokinetics in mice; Mouse, Time (hrs) 0.5
  Norm. conc i.v.: 636.667 ng/mL and 626.667 ng/mL and 630 ng/mL
  Norm. conc p.o.: 610 ng/mL and 600 ng/mL and 553.333 ng/mL
Pharmacokinetics in mice; Mouse, Time (hrs) 1
  Norm. conc i.v.: 324.667 ng/mL and 366.667 ng/mL and 300 ng/mL
  Norm. conc p.o.: 333.333 ng/mL and 313.333 ng/mL and 271.333 ng/mL
Pharmacokinetics in mice; Mouse, Time (hrs) 2
  Norm. conc i.v.: 132.333 ng/mL and 151 ng/mL and 104 ng/mL
  Norm. conc p.o.: 115 ng/mL and 103.667 ng/mL and 65 ng/mL
Pharmacokinetics in mice; Mouse, Time (hrs) 4
  Norm. conc i.v.: 39.3333 ng/mL and 48.3333 ng/mL and 26.9333 ng/mL
Pharmacokinetics in mice; Mouse, Time (hrs) 24
  Norm. conc p.o.: 0.01333 ng/mL and 0.02 ng/mL
Pharmacokinetics in mice; i.v. 3 mg/kg, mean
  AUC0-∞: 3764.7 ng·h/mL
  AUClast: 3763.8 ng·h/mL
  C0: 5013.7 ng/mL
  Kel: 0.58 h⁻¹
  Vss_obs: 1.0265 L/kg
Pharmacokinetics in mice; i.v. 3 mg/kg, mean, 3 mg/kg
  CLtotal: 13.4 mL/min/kg and 13.36 mL/min/kg
  T1/2: 1.2 h and 1.19 h
Pharmacokinetics in mice; mice
  share of total clearance contributed by the kidney: 48%
Pharmacokinetics in mice; mice, total minus predicted hepatic
  clearance contributed by the kidney: 6.4 mL/min/kg
Pharmacokinetics in mice; p.o. 30 mg/kg, mean
  %F: 70.03%
  AUC0-∞: 26362.9 ng·h/mL
  AUClast: 26362.2 ng·h/mL
  CLtotal: 19.21 mL/min/kg
  Cmax: 25100.0 ng/mL
  Kel: 0.67 h⁻¹
  T1/2: 1.05 h
  Tmax: 0.25 h
Caco-2
  Average Papp A to B: 2.9e-06 s⁻¹
  Average Papp B to A: 1.35e-05 s⁻¹
  Efflux ratio: 4.7
[4]
  plasma protein binding: 52%
